Where a name gives a salt, the structure may show the parent alone.
Legend:
[1] = biological target: T1, D2 receptor, rat striatal tissue (Rattus norvegicus, UniProt P61169); assay: D2 receptor binding ([3H]-spiperone); conditions: [3H]-spiperone 0.5 nM, non-specific binding with (±)-sulpiride 10 μM
T1 construct: from tissue; host or cells: rat striatal tissue
Procedure: Binding of [^3H]-spiperone (0.5 nM) to rat striatal tissue was measured according to the method of Seeman (J. Neurochem., 1984, 43 221-235). The non-specific binding was determined in the presence of (±)-sulpiride (10 μM).

[2] = biological target: T2, rat recombinant D3 receptors expressed in Sf9 cells (Rattus norvegicus, UniProt P19020); assay: D3 receptor binding ([3H]-spiperone); conditions: [3H]-spiperone 0.4 nM; non-specific binding with haloperidol 10 μM
T2 construct: purchased Research Biochemical International D-181; host or cells: Sf9 cells
T2 sequence (P19020 whole entry): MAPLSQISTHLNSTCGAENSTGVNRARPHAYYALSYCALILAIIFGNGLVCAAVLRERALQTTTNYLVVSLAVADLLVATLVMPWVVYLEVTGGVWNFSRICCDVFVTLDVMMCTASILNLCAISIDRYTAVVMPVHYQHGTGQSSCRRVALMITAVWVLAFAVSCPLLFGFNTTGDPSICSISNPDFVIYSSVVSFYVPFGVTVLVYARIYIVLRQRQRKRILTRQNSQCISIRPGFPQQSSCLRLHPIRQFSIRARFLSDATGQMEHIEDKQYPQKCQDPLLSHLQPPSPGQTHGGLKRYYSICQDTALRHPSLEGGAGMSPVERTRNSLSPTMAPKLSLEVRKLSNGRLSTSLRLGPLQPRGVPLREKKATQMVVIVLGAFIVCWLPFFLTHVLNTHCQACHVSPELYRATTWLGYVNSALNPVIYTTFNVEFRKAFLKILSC
Procedure: Binding study was carried out on rat recombinant D3 receptors expressed in Sf9 cells using [^3H]-spiperone (0.4 nM) as ligand and haloperidol (10 μM) for determination of non-specific binding.

T1 sequence (P61169 whole entry): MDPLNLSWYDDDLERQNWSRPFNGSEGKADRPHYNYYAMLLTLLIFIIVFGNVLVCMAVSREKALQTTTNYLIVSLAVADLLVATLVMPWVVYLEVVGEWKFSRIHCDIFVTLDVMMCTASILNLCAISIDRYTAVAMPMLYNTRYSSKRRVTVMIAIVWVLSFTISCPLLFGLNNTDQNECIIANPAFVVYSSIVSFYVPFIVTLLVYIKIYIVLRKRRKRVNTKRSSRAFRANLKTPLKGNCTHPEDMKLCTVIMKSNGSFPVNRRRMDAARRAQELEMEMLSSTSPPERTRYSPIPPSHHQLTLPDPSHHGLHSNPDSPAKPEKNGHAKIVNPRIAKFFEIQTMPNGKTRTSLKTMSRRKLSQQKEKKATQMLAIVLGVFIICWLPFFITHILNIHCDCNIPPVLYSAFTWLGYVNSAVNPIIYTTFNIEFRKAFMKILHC

IC50 [1] [nM] | IC50 [2] [nM] | melting point [°C] | Structure (SMILES)
109 | 1 |  | O=S(=O)(CCCN1CCOCC1)N[C@H]1CC[C@H](CCN2CCN(c3cccc(C(F)(F)F)c3)CC2)CC1 [compound 70001934, Trans-N-(4-{2-[4-(3-trifluoromethyl-phenyl)-piperazin-1-yl]-ethyl}-cyclohexyl)-4-morpholinepropanesulfonamide]
290 | 1.5 |  | CN(C)S(=O)(=O)N[C@H]1CC[C@H](CCN2CCN(c3cc(C#N)cc(C(F)(F)F)c3)CC2)CC1 [compound 70001788, Trans-N′-(4-{2-[4-(3-cyano-5-trifluoromethyl-phenyl)-piperazin-1-yl]-ethyl}-cyclohexyl)-N,N-dimethyl-sulfamide]
128 | 5.3 |  | N#Cc1cc(N2CCN(CC[C@H]3CC[C@H](NS(=O)(=O)c4ccc(Cl)s4)CC3)CC2)cc(C(F)(F)F)c1 [compound 70001766, Trans-5-chloro-N-(4-{2-[4-(3-cyano-5-trifluoromethyl-phenyl)-piperazin-1-yl]-ethyl}-cyclohexyl)-2-thiophenesulfonamide]
16 | 3 |  | O=S(=O)(N[C@H]1CC[C@H](CCN2CCC(Nc3cccc(C(F)(F)F)c3)CC2)CC1)c1ccc(Cl)cc1 [compound 70001589, Trans-4-chloro-N-(4-{2-[4-(3-trifluoromethyl-phenylamino)-piperidin-1-yl]-ethyl}-cyclohexyl)-benzenesulfonamide]
345 | 3.9 |  | O=S(=O)(N[C@H]1CC[C@H](CCN2CCC(Cc3cccc(F)c3)CC2)CC1)c1ccc(Cl)cc1 [compound 70001686, Trans-4-chloro-N-(4-{2-[4-(3-fluoro-phenylmethyl)-piperidin-1-yl]-ethyl}-cyclohexyl)-benzenesulfonamide]
29 | 0.3 |  | O=S(=O)(N[C@H]1CC[C@H](CCN2CCN(c3cccc(C(F)(F)F)c3)CC2)CC1)c1cccnc1 [compound 70001935, Trans-N-(4-{2-[4-(3-trifluoromethyl-phenyl)-piperazin-1-yl]-ethyl}-cyclohexyl)-3-pyridinesulfoamide]
 |  | 243 to 246 | COc1cc(-c2ccccc2)ccc1N1CCN(CC[C@H]2CC[C@H](NS(=O)(=O)N(C)C)CC2)CC1 (as salt: hydrochloride) [compound 70001488, Trans-N′-(4-{2-[4-(3-methoxy-biphenyl-4-yl)-piperazin-1-yl]-ethyl}-cyclohexyl)-N,N-dimethyl]
2590 | 5.5 |  | CCCCS(=O)(=O)N[C@H]1CC[C@H](CCN2CCN(c3ccc(-c4ccccc4)cc3OC)CC2)CC1 [compound 70001485, Trans-N-(4-{2-[4-(3-methoxy-biphenyl-4-yl)-piperazin-1-yl]-ethyl}-cyclohexyl)-buthanesulfonamide]
110 | 0.6 |  | CCCCS(=O)(=O)N[C@H]1CC[C@H](CCN2CCN(c3cccc(C(F)(F)F)c3)CC2)CC1 [compound 70001596, Trans-N-(4-{2-[4-(3-trifluoromethyl-phenyl)-piperazin-1-yl]-ethyl}-cyclohexyl)-buthanesulfonamide]
245 | 4.3 |  | COc1cc(-c2ccccc2)ccc1N1CCN(CC[C@H]2CC[C@H](NS(=O)(=O)N(C)C)CC2)CC1 [compound 70001488, Trans-N′-(4-{2-[4-(3-methoxy-biphenyl-4-yl)-piperazin-1-yl]-ethyl}-cyclohexyl)-N,N-dimethyl]
66 | 2.8 |  | O=S(=O)(N[C@H]1CC[C@H](CCN2CCC(Oc3cccc(C(F)(F)F)c3)CC2)CC1)c1cccnc1 [compound 70001875, Trans-N-(4-{2-[4-(3-trifluoromethyl-phenoxy)-piperidin-1-yl]-ethyl}-cyclohexyl)-3-pyridinesulfonamide]
65 | 2 |  | N#Cc1cc(N2CCN(CC[C@H]3CC[C@H](NS(=O)(=O)c4ccc(Cl)cc4)CC3)CC2)cc(C(F)(F)F)c1 [compound 70001492, Trans-4-chloro-N-(4-{2-[4-(3-cyano-5-trifluoromethyl-phenyl)-piperazin-1-yl]-ethyl}-cyclohexyl)-benzenesulfonamide]
102 | 2.5 |  | CCCCS(=O)(=O)N[C@H]1CC[C@H](CCN2CCC(Nc3cccc(C(F)(F)F)c3)CC2)CC1 [compound 70001588, Trans-N-(4-{2-[4-(3-trifluoromethyl-phenylamino)-piperidin-1-yl]-ethyl}-cyclohexyl)-buthanesulfonamide]
